According to publication PMC6722136, “Engineered Carbonic Anhydrase VI-Mimic Enzyme Switched the Structure and Affinities of Inhibitors” (Scientific Reports, 2019):
Like-named read-outs stand apart in the source and are kept apart here.

Columns and labels:
CA VI [1] = biological target: T1, CA VI (Homo sapiens, UniProt P23280); details: FTSA, pH 7.0, 37 °C; read-out: Kd_obs CA VI; cited from earlier work
T1 construct: made in house; host or cells: E. coli

[2] = pKa of sulfonamide amino group of inhibitor; cited from earlier work
[3] = biological target: T2, CA VI-mimic (CA II mutant A65T, N67Q, F130Y, V134Q, L203T) (Homo sapiens, UniProt P00918, A65T/F130Y/L203T/N67Q/V134Q); assay: Fluorescent thermal shift assay (FTSA), inhibitor binding to CA VI-mimic; details: for Kd / difference between Kd_obs and Kd_intr for CA VI-mimic: FTSA; for Kd: read-out: Kd_obs CA VI-mimic; for difference between Kd_obs and Kd_intr for CA VI-mimic: 37 °C
T2 construct: encoding full length CA II (1-260), was used in site-directed mutagenesis; made in house; host or cells: E. coli BL21(DE3)

CA II = biological target: T3, CA II (Homo sapiens, UniProt P00918); details: FTSA, pH 7.0, 37 °C; read-out: Kd_obs CA II; cited from earlier work
T3 construct: encoding full length CA II (1-260), was used in site-directed mutagenesis; made in house; host or cells: E. coli

CA VI [4] = biological target: T1, CA VI; assay: Stopped-flow CO2 hydration assay (SFA), inhibition of CA VI; type: biochemical
[5] = SFA pH 7.5, measured at 23 °C, extrapolated to 37 °C by van't Hoff equation, read-out: Kd_obs CA VI by SFA (in parentheses)
[6] = SFA, pH 7.5, 23 °C, read-out: Kd_obs CA VI by SFA

T1 sequence (P23280 18-308): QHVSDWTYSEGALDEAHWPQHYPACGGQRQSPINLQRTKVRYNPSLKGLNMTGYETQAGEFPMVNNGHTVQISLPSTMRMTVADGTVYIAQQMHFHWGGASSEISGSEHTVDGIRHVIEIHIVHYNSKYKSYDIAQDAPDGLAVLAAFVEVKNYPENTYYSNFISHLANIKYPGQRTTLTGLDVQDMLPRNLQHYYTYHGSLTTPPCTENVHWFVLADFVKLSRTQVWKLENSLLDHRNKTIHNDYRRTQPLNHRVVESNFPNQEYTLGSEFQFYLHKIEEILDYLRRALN

| SMILES | Kd (CA VI [1]) | pKa_SA [2] | further results |
| --- | --- | --- | --- |
| NS(=O)(=O)c1c(F)c(F)c(Sc2nc3ccccc3s2)c(F)c1F [Inhibitor 13] | 0.2 µM | 7.83 |  |
| NS(=O)(=O)c1c(F)c(F)c(S(=O)(=O)CCO)c(NC2CCCCCCC2)c1F [Inhibitor 25] |  | 8.01 |  |
| NS(=O)(=O)c1c(F)c(F)c(Sc2ccccc2)c(F)c1F [Inhibitor 9] | 0.2 µM | 7.80 |  |
| CCOC(=O)c1cnc(SCC(=O)c2ccc(Cl)c(S(N)(=O)=O)c2)[nH]c1=O [Inhibitor 33] |  | 8.90 |  |
| NS(=O)(=O)C(F)(F)F [Inhibitor 1] |  | 6.02 |  |
| CCOc1ccc2nc(S(N)(=O)=O)sc2c1 [Inhibitor 2] |  | 7.82 |  |
| NS(=O)(=O)c1c(F)c(F)c(S(=O)(=O)CCc2ccccc2)c(NC2Cc3ccccc3C2)c1F [Inhibitor 27] | 2 µM | 7.87 | Kd ([3]; pH 7.0, 37 °C): 1 µM; Kd (CA II): 0.035 µM |
| NS(=O)(=O)c1c(F)c(F)c(S(=O)(=O)CCc2ccccc2)c(NCc2ccccc2)c1F [Inhibitor 29] | 0.11 µM | 7.87 | Kd ([3]; pH 7.0, 37 °C): 0.2 µM |
| NS(=O)(=O)c1ccc(SCCc2ccccc2)cc1 [Inhibitor 16] | 1.1 µM | 10.1 | difference between Kd_obs and Kd_intr for CA VI-mimic [3]: 2500 fold |
| NS(=O)(=O)c1c(F)c(F)c(SCCO)c(F)c1F [Inhibitor 6] |  | 8.14 |  |
| NS(=O)(=O)c1c(F)c(F)c(F)c(F)c1F [Inhibitor 4] | 0.43 µM | 8.12 |  |
| CCCSc1ccc(S(N)(=O)=O)cc1 [Inhibitor 23] | 0.83 µM | 10.2 | Kd (CA VI [4]; [5]): 3.9 µM; Kd (CA VI [4]; [6]): 1.8 µM; difference between Kd_obs and Kd_intr for CA VI-mimic [3]: 3200 fold |
| NS(=O)(=O)c1c(F)c(F)c(SCc2ccccc2)c(F)c1F [Inhibitor 32] | 0.33 µM | 8.53 | stronger intrinsic binding to CA VI-mimic than inhibitor 9 ([3]; Kd_intr): 4 fold; stronger intrinsic binding to CA VI-mimic than inhibitor 15 ([3]; Kd_intr): 2 fold |
| NS(=O)(=O)c1ccc(SCCO)cc1 [Inhibitor 30] |  | 9.96 |  |
| NS(=O)(=O)c1c(F)c(F)c(S(=O)(=O)c2ccccc2)c(F)c1F [Inhibitor 18] | 0.16 µM | 7.07 | difference between Kd_obs and Kd_intr for CA VI-mimic [3]: lower than 10 fold |
| NS(=O)(=O)c1c(F)c(F)c(S(=O)(=O)CCO)c(F)c1NCc1ccccc1 [Inhibitor 11] | 0.13 µM | 7.85 | Kd ([3]; pH 7.0, 37 °C): 0.14 µM; Kd (CA II): 0.083 µM |
| CCCSc1c(F)c(F)c(S(N)(=O)=O)c(F)c1F [Inhibitor 22] | 0.14 µM | 8.15 |  |
| NS(=O)(=O)c1c(F)c(F)c(S(=O)(=O)CCc2ccccc2)c(N[C@H](c2ccccc2)[C@H](O)c2ccccc2)c1F [Inhibitor 31] | 1 µM | 7.87 | Kd ([3]; pH 7.0, 37 °C): 2 µM; weakening of intrinsic binding to CA VI-mimic relative to comparison compound ([3]; Kd_intr, 30 vs 23, 6 vs 22, 19 vs 22, 31 vs 26): 9 fold; Kd (CA II): 0.033 µM |
| NS(=O)(=O)c1c(F)c(F)c(N2CCOCC2)c(F)c1F [Inhibitor 5] | 1.1 µM | 8.61 |  |
| NS(=O)(=O)c1ccc(C(=O)Cn2cnc3ccccc32)cc1Cl [Inhibitor 41] | 3.3 µM | 8.30 |  |
| NS(=O)(=O)c1cccc(C(=O)CSc2nc3ccccc3s2)c1 [Inhibitor 44] | 3.3 µM | 9.60 | Kd ([3]; pH 7.0, 37 °C): 0.5 µM; Kd (CA II): 0.14 µM |
| C=CCNc1nc(-c2ccc(S(N)(=O)=O)c(Cl)c2)cs1 [Inhibitor 46] | 17 µM | 9.40 | Kd ([3]; pH 7.0, 37 °C): 1.1 µM; Kd (CA II): 0.1 µM |

| SMILES | Kd (CA VI [1]) | pKa_SA [2] | further results |
| --- | --- | --- | --- |
| CC(=O)/N=c1/sc(S(N)(=O)=O)nn1C [Inhibitor 3] |  | 6.86 |  |
| CC(C)Nc1c(F)c(SCCc2ccccc2)c(F)c(F)c1S(N)(=O)=O [Inhibitor 20] | 3.3 µM | 8.67 | Kd ([3]; pH 7.0, 37 °C): 2.5 µM |
| NS(=O)(=O)c1c(F)c(F)c(SCCc2ccccc2)c(F)c1F [Inhibitor 15] | 0.4 µM | 8.05 |  |
| CCCc1cnc(SCC(=O)c2ccc(S(N)(=O)=O)c(Cl)c2)nc1 [Inhibitor 37] |  | 8.90 |  |
| Cc1cc(=O)[nH]c(SCC(=O)c2ccc(S(N)(=O)=O)c(Cl)c2)n1 [Inhibitor 39] |  | 8.90 |  |
| Cc1cc(C)nc(Sc2c(F)c(F)c(S(N)(=O)=O)c(F)c2F)n1 [Inhibitor 14] | 1 µM | 8.02 | Kd (CA VI [4]; [5]): 0.63 µM; Kd (CA VI [4]; [6]): 0.29 µM |
| NNc1c(F)c(F)c(S(N)(=O)=O)c(F)c1F [Inhibitor 7] | 1 µM | 8.84 |  |
| NS(=O)(=O)c1c(F)c(F)c(Sc2nc(-c3ccccc3)c(-c3ccccc3)[nH]2)c(F)c1F [Inhibitor 12] | 0.14 µM | 7.69 |  |
| COc1ccc(CNc2c(F)c(SCCc3ccccc3)c(F)c(F)c2S(N)(=O)=O)cc1OC [Inhibitor 21] | 20 µM | 8.67 | Kd ([3]; pH 7.0, 37 °C): 3.3 µM; Kd (CA II): 1.8 µM |
| Cc1cc(C)nc(SCC(=O)c2cccc(S(N)(=O)=O)c2)n1 [Inhibitor 35] |  | 9.40 |  |
| NS(=O)(=O)c1ccc(C(=O)CSc2ccccc2)cc1Cl [Inhibitor 34] | 1.1 µM | 8.70 | Kd ([3]; pH 7.0, 37 °C): 0.33 µM; Kd (CA II): 0.0056 µM |
| NS(=O)(=O)c1ccc(C(=O)Cn2c(Cc3ccccc3)nc3ccccc32)cc1Cl [Inhibitor 42] | 1.4 µM | 8.70 | Kd ([3]; pH 7.0, 37 °C): 0.33 µM |
| COc1ccc(CNc2c(F)c(SCCO)c(F)c(F)c2S(N)(=O)=O)cc1OC [Inhibitor 24] | 11 µM | 8.67 | Kd ([3]; pH 7.0, 37 °C): 5 µM; Kd (CA II): 1.3 µM |
| NS(=O)(=O)c1cccc(C(=O)Cn2c(Cc3ccccc3)nc3ccccc32)c1 [Inhibitor 43] | 10 µM | 9.60 | Kd ([3]; pH 7.0, 37 °C): 3.3 µM |
| NS(=O)(=O)c1c(F)c(F)c(S(=O)(=O)CCc2ccccc2)c(F)c1F [Inhibitor 26] | 0.14 µM | 7.22 | difference between Kd_obs and Kd_intr for CA VI-mimic [3]: lower than 10 fold |
| NS(=O)(=O)c1c(F)c(F)c(SCCc2ccccc2)c(F)c1N1CCOCC1 [Inhibitor 17] | 100 µM | 8.67 | Kd [3]: 100 µM |
| CCc1cnc(SCC(=O)c2ccc(S(N)(=O)=O)c(Cl)c2)nc1 [Inhibitor 36] |  | 8.90 |  |
| CCCc1cnc(SCC(=O)c2ccc(S(N)(=O)=O)cc2)nc1 [Inhibitor 38] |  | 9.40 |  |
| NS(=O)(=O)c1c(F)c(F)c(NCc2ccccc2)c(F)c1F [Inhibitor 8] | 1.2 µM | 8.47 |  |
| NS(=O)(=O)c1c(F)c(F)c(S(=O)(=O)CCO)c(F)c1F [Inhibitor 10] |  | 7.28 | difference between Kd_obs and Kd_intr for CA VI-mimic [3]: lower than 10 fold |
| NS(=O)(=O)c1c(F)c(F)c(SCCC(=O)O)c(F)c1F [Inhibitor 19] | 0.5 µM | 7.97 |  |
| NS(=O)(=O)c1cccc(C(=O)Cn2cnc3ccccc32)c1 [Inhibitor 40] | 6.7 µM | 9.60 | Kd ([3]; pH 7.0, 37 °C): 3.3 µM; Kd (CA II): 3.6 µM |
